We go through 7 compounds from paper PMC12279208, “Targeted Penetrating Motif Engineering of BH3 Mimetic: Harnessing Non‐Canonical Amino Acids for Coinhibition of MCL‐1 and BCL‐xL in Acute Myeloid Leukemia” (Advanced Science, 2025).

Square brackets hold non-standard residues; d marks the D form. Peptide text beside a SMILES is read from it. Bpa = N[C@@H](Cc1ccc(C(=O)c2ccccc2)cc1)C(=O)O; Phe(4-Me) = Cc1ccc(C[C@H](N)C(=O)O)cc1; Met(O2) = CS(=O)(=O)CC[C@H](N)C(=O)O; Chg = N[C@H](C(=O)O)C1CCCCC1

One data set has as its target T1, BCL-xL (Homo sapiens, UniProt Q07817).
T1 construct: His; purchased BPS Biosciences 50223
In words: Cell-free TR-FRET inhibition of BCL-xL binding to its peptide ligand. The following applies: 3 h at room temperature, 0.25-1000 nM, n = 4. The protocol:
(§1) The inhibition of MCL-1 and BCL-xL binding to their respective ligands was quantified using time-resolved fluorescence resonance energy transfer (TR-FRET) assay kits (BPS Biosciences, Catalog Nos. 79506 and 50223). […] All samples and controls were run in quadruplicate, ensuring a final DMSO concentration below 0.1%. Selected hit compounds were tested at various concentrations: 0.25, 0.5, 1, 2, 4, 8, 16, 32, 64, 125, 500, and 1000 nM. The test assay components were prepared as follows: A 3× MCL TR-FRET assay buffer was diluted with two parts distilled water to create a 1× MCL TR-FRET assay buffer. The anti-His terbium-labeled donor and dye-labeled acceptor were diluted 200-fold in 1× MCL TR-FRET assay buffer. Each well received 5 μL of the anti-His terbium-labeled donor and dye-labeled acceptor mixture. In the negative control wells, 2 μL of inhibitor buffer and 1× MCL-1 TR-FRET assay buffer were added. For the positive control wells, 2 μL of inhibitor buffer and the MCL-1 peptide ligand were added. Subsequently, 2 μL of the diluted test inhibitor solution and the MCL-1 peptide ligand were added to the test inhibitor wells. Finally, 3 μL of diluted MCL-1 protein solution was added to each well, and the plate was incubated at room temperature for 3 hours.
(§2) TR-FRET Ratio=Emission at 665 nmEmission at 620 nm
(§3) The percent activity was calculated as follows:
(§4) Percent Activity=FRETsample-FRETnegFRETp-FRETneg×100%
(§5) where FRETsample is the sample FRET, FRETneg is the negative control FRET, and FRETp is the positive control FRET.

The next data set concerns the target T2, MCL-1 (Homo sapiens, UniProt Q07820).
T2 construct: purchased BPS Biosciences 79506
Put plainly: Cell-free TR-FRET inhibition of MCL-1 binding to its peptide ligand. Conditions: 3 h at room temperature, 0.25-1000 nM, n = 4. On the procedure:
as §1, §2, §3, §4, §5
Background: Time-resolved FRET reads energy transfer from a long-lived donor to a nearby acceptor.

In data set [1] the test system is THP-1 luciferase-transplanted xenografts. In words: AML mouse model, THP-1 luciferase xenograft.
Description: To establish the AML mouse model, the animals were intravenously (IV) injected with luciferase-transfected THP-1 cells (THP-1 luciferase; 1 × 10⁶ cells/200 μL). The mice were randomly assigned to one of five experimental groups. […] Venetoclax was formulated for oral administration in a solution comprising 60% phosal 50 propylene glycol (PG), 30% polyethylene glycol (PEG) 400, and 10% ethanol, provided by MedChemExpress[30]. Before administration, both Venetoclax and BH3 peptide stock solutions were freshly diluted to working concentrations with sterile normal saline. The mice were anesthetized and administered 200 µL of a 15 mg/mL luciferase substrate, D-luciferin potassium salt (Beyotime Biotech, ST196-500mg), intraperitoneally. The progression of AML dissemination in mice was monitored until the day of euthanasia using an in vivo optical imaging system (Tanon ABL-X6; Tanon, Shanghai, China). The results were expressed as total flux (photons/s; radiance photons) ± standard deviation (SD) in both in vivo and ex vivo studies. The extent of the leukemia burden was determined by flow cytometry of peripheral blood human CD45+ cells. During the third and fourth weeks of the study, blood was collected from the orbital sinuses of mice in each group. […] Flow cytometry was employed to ascertain the expression of hCD45 in PBMCs. […] Following the completion of the designated treatment period, five mice from each group were randomly selected and euthanized by CO₂ asphyxiation. […] The bone marrow (from the tibia and femur), spleen, and liver were minced and made into single-cell suspensions in PBS, followed by red blood cell lysis. The cells were then stained with hCD45-PE antibody and analyzed by flow cytometry.
Liver, lung, kidney, spleen, and left femur tissues were formalin-fixed and paraffin-embedded. Bone tissue was decalcified with 10% EDTA decalcification solution prior to paraffin embedding. Paraffin blocks were then sectioned at 2-4 μm thickness and mounted on microscope slides. Tissue sections were deparaffinized and rehydrated using 100% xylene and ethanol solutions of decreasing concentrations.
The next data set has as its system THP-1 cells. Put plainly: Apoptosis detection, Annexin V-FITC/PI flow cytometry. The format is cell-based, human. Conditions: THP-1, Venetoclax 0.8 µM, 48 h. The protocol: (§6) Cell apoptosis was measured following the manufacturer's instructions for the Annexin V-FITC kit (Elabscience, E-CK-A211-100). 1 × 10⁵ cells were co-cultured with varying concentrations of peptides or Venetoclax in 24-well plates for 48 hours. After incubation, the cells were collected by centrifugation, washed with PBS, and incubated with Annexin V-FITC and PI staining solution for 15 minutes under light-protected conditions. Apoptosis was then identified and analyzed using a flow cytometer (Beckman CytoFLEX, USA)[18].
In general terms: A flow cytometer gives signals particle by particle.

Another data set concerns U-937 cells. The description is as above. The format is cell-based, human. The following applies: U-937, Venetoclax 8 µM, 48 h. The protocol: as §6
For a further data set, the system named is AML cells (THP-1). Put plainly: CCK-8 cytotoxicity for selectivity, 24 h. The following applies: Homo sapiens; THP-1, CCK-8, 24-hour incubation, n = 5. It counts as cell-based. On the procedure: (§7) The IC50 values of peptide drugs were determined in the experiments using the CCK-8 assay after a 24-hour incubation. The human acute leukemia cell line THP-1 was used as the leukemia cell model, while normal HSCs served as the control group. Higher SI values indicate greater selectivity of the peptide for leukemia cells over normal cells.

The test system of data set [2] is HSCs (CD34+ hematopoietic stem cells from cord blood). Put plainly: CCK-8 cytotoxicity for selectivity, 24 h. The format is cell-based. Conditions: Hematopoietic stem cell; human cord blood CD34+ HSCs, CCK-8, 24-hour incubation, n = 5; read-out: HSC IC50. The protocol: as §7
Data set [3] has as its system AML cells (THP-1) relative to HSCs. Put plainly: Selectivity index calculation. The following applies: n = 5. It counts as cell-based, human. The protocol: The selectivity index (SI) was calculated to assess the specificity of peptide drugs toward leukemia cells relative to normal human HSCs. The SI is defined as the ratio of the IC50 value for HSCs to the IC50 value for leukemia cell lines, as shown in the following formula:
SI=IC50HSCsIC50leukemia cells
as §7

T2 sequence (Q07820 whole entry): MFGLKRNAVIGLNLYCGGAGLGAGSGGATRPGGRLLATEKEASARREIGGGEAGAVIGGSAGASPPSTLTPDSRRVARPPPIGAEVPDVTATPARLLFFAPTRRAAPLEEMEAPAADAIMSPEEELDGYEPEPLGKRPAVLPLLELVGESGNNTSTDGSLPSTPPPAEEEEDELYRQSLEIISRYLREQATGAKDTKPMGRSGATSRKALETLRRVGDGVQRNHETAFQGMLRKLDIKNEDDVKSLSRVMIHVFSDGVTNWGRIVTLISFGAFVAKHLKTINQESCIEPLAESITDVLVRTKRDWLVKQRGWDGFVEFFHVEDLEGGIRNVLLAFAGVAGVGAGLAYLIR
T1 sequence (Q07817 whole entry): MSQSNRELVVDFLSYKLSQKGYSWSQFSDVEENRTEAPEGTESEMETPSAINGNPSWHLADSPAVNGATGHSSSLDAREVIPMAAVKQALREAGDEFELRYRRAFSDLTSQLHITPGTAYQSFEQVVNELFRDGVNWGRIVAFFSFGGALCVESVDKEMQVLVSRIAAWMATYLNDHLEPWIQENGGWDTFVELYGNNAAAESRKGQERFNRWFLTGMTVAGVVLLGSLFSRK

On to `CC[C@H](C)[C@H](NC(=O)[C@H](CCCNC(=N)N)NC(=O)[C@H](CCCNC(=N)N)NC(=O)[C@H](CC(C)C)NC(=O)[C@H](CCC(=O)O)NC(=O)[C@H](CCC(N)=O)NC(=O)[C@H](C)NC(=O)[C@@H](NC(=O)[C@H](Cc1c[nH]c2ccccc12)NC(=O)[C@@H](NC(=O)[C@H](CCC(=O)O)NC(=O)[C@@H]1CCCN1)[C@@H](C)CC)C1CCCCC1)C(=O)NCC(=O)N[C@@H](CC(=O)O)C(=O)N[C@@H](CCC(=O)O)C(=O)N[C@@H](Cc1ccc(C)cc1)C(=O)N[C@@H](CC(N)=O)C(=O)N[C@@H](C)C(=O)N[C@@H](Cc1ccc(O)cc1)C(=O)N[C@@H](Cc1ccc(O)cc1)C(=O)N[C@@H](C)C(N)=O` [D] (H-PEIW[Chg]AQELRRIGDE[Phe(4-Me)]NAYYA-NH2), for which the values for the half-maximal inhibitory concentration (IC50) at BCL-xL and on MCL-1 were 58.5 nM and 25.4 nM, respectively.

Regarding `CC1(C)CCC(CN2CCN(c3ccc(C(=O)NS(=O)(=O)c4ccc(NCC5CCOCC5)c([N+](=O)[O-])c4)c(Oc4cnc5[nH]ccc5c4)c3)CC2)=C(c2ccc(Cl)cc2)C1` [Venetoclax], the “Average body weight at study end” value in data set [1] (30 days, same regimens, n = 12, Vehicle ≈19 g) is listed as “≈ 20 g”. The “Bioluminescence (tumor burden) over 30 days” value in data set [1] (Venetoclax 25 mg kg−1 p.o., TAT-I or vMIP-II-TAT-I 1.5 µmol kg−1 i.v., Combination both, every 2 days, n = 5) is on record as “minimal therapeutic efficacy”. Also, the Median survival in data set [1] (Venetoclax 25 mg kg−1 p.o., TAT-I or vMIP-II-TAT-I 1.5 µmol kg−1 i.v., Combination both, every 2 days, n = 7, Vehicle 35 days) stood at 37 days. The “hCD45+ cells in PBMCs” value in data set [1] (week 3, flow cytometry, n = 5, Vehicle ≈7%) is listed as “≈ 5%”. Further, the Apoptosis is listed as 47.3% in the data set on THP-1 cells and 49.3% in the data set with U-937 cells.

In the case of `Cc1cc2c(C(C)C)c(O)c(O)c(C=O)c2c(O)c1-c1c(C)cc2c(C(C)C)c(O)c(O)c(C=O)c2c1O` [AT-101, (R)-(-)-Gossypol], the figures for the half-inhibitory concentration (IC50) (with AML cells (THP-1); in data set [2]) were 18.9 µM and 67.7 µM, respectively. For the same compound, in data set [3] (IC50 HSCs / IC50 THP-1, in combination with Venetoclax (concentration not given)), the “Selectivity index (SI) combined with Venetoclax” value is listed as 3.85. Moreover, the “Selectivity index (SI)” value in data set [3] (IC50 HSCs / IC50 leukemia cells (THP-1), single agent) was 3.56.

`CC[C@H](C)[C@H](NC(=O)[C@H](CCCNC(=N)N)NC(=O)[C@H](CCCNC(=N)N)NC(=O)[C@H](CC(C)C)NC(=O)[C@H](CCC(=O)O)NC(=O)[C@H](CCC(N)=O)NC(=O)[C@H](C)NC(=O)[C@@H](NC(=O)[C@H](Cc1c[nH]c2ccccc12)NC(=O)[C@H](CCS(C)(=O)=O)NC(=O)[C@H](Cc1ccc(C(=O)c2ccccc2)cc1)NC(=O)[C@@H]1CCCN1)C1CCCCC1)C(=O)NCC(=O)N[C@@H](CC(=O)O)C(=O)N[C@@H](CCC(=O)O)C(=O)N[C@@H](Cc1ccc(C)cc1)C(=O)N[C@@H](CC(N)=O)C(=O)N[C@@H](C)C(=O)N[C@@H](Cc1ccc(O)cc1)C(=O)N[C@@H](Cc1ccc(O)cc1)C(=O)N[C@@H](C)C(N)=O` [B] (H-P[Bpa][Met(O2)]W[Chg]AQELRRIGDE[Phe(4-Me)]NAYYA-NH2): the IC50 (usually the concentration needed to halve the response being measured) was found to be 412 nM on BCL-xL and 122 nM on MCL-1.

Regarding `CC[C@H](C)[C@H](NC(=O)[C@H](CCCNC(=N)N)NC(=O)[C@H](CCCNC(=N)N)NC(=O)[C@H](CC(C)C)NC(=O)[C@H](CCC(=O)O)NC(=O)[C@H](CCC(N)=O)NC(=O)[C@H](C)NC(=O)[C@@H](NC(=O)[C@H](Cc1c[nH]c2ccccc12)NC(=O)[C@@H](NC(=O)[C@H](CCC(=O)O)NC(=O)[C@@H]1CCCN1)[C@@H](C)CC)C1CCCCC1)C(=O)NCC(=O)N[C@@H](CC(=O)O)C(=O)N[C@@H](CCC(=O)O)C(=O)N[C@@H](Cc1ccccc1)C(=O)N[C@@H](CC(N)=O)C(=O)N[C@@H](C)C(=O)N[C@@H](Cc1ccc(O)cc1)C(=O)N[C@@H](Cc1ccc(O)cc1)C(=O)N[C@@H](C)C(N)=O` [F] (H-PEIW[Chg]AQELRRIGDEFNAYYA-NH2), the half-maximal inhibitory concentration (IC50) on BCL-xL came out at 30.8 nM; on MCL-1, 9.77 nM.

Regarding `CC[C@H](C)[C@H](NC(=O)[C@H](CCCNC(=N)N)NC(=O)[C@H](CCCNC(=N)N)NC(=O)[C@H](CC(C)C)NC(=O)[C@H](CCC(=O)O)NC(=O)[C@H](CCC(N)=O)NC(=O)[C@H](C)NC(=O)[C@@H](NC(=O)[C@H](Cc1c[nH]c2ccccc12)NC(=O)[C@H](CCS(C)(=O)=O)NC(=O)[C@H](CCC(=O)O)NC(=O)[C@@H]1CCCN1)C1CCCCC1)C(=O)NCC(=O)N[C@@H](CC(=O)O)C(=O)N[C@@H](CCC(=O)O)C(=O)N[C@@H](Cc1ccc(C)cc1)C(=O)N[C@@H](CC(N)=O)C(=O)N[C@@H](C)C(=O)N[C@@H](Cc1ccc(O)cc1)C(=O)N[C@@H](Cc1ccc(O)cc1)C(=O)N[C@@H](C)C(N)=O` [C] (H-PE[Met(O2)]W[Chg]AQELRRIGDE[Phe(4-Me)]NAYYA-NH2), the IC50 at BCL-xL worked out at 278 nM; on MCL-1, 48.9 nM.

For the compound `CC[C@H](C)[C@H](NC(=O)[C@H](CCCNC(=N)N)NC(=O)[C@H](CCCNC(=N)N)NC(=O)[C@H](CC(C)C)NC(=O)[C@H](CCC(=O)O)NC(=O)[C@H](CCC(N)=O)NC(=O)[C@H](C)NC(=O)[C@@H](NC(=O)[C@H](Cc1c[nH]c2ccccc12)NC(=O)[C@H](CCS(C)(=O)=O)NC(=O)[C@H](Cc1ccc(C(=O)c2ccccc2)cc1)NC(=O)[C@@H]1CCCN1)[C@@H](C)CC)C(=O)NCC(=O)N[C@@H](CC(=O)O)C(=O)N[C@@H](CCC(=O)O)C(=O)N[C@@H](Cc1ccc(C)cc1)C(=O)N[C@@H](CC(N)=O)C(=O)N[C@@H](C)C(=O)N[C@@H](Cc1ccc(O)cc1)C(=O)N[C@@H](Cc1ccc(O)cc1)C(=O)N[C@@H](C)C(N)=O` [G] (H-P[Bpa][Met(O2)]WIAQELRRIGDE[Phe(4-Me)]NAYYA-NH2), the IC50 at BCL-xL was found to be 565 nM; on MCL-1 it was 206 nM.
